Measured values taken from patent publication US8673265B2, “Carbonylporphyrins and uses thereof” (Brookhaven Science Associates, LLC, priority 2006, dated 2014).

Assays:
EMT-6 mammary carcinomas = assay: Biodistribution (boron concentrations in tissues) in mice bearing EMT-6 carcinomas; assay type: in vivo, BALB/c mice; settings: for Average boron concentration, Blood / Average boron concentration, Brain / Average boron concentration, Heart / Average boron concentration, Kidneys / Average boron concentration, Liver / Average boron concentration, Skin (pinna) / Average boron concentration, Spleen / Average boron concentration, Tumor / Average boron concentration, Feces / Average boron concentration, Lungs: 3 i.p. injections over 8 hours
Experimental: BALB/c mice bearing subcutaneously implanted EMT-6 mammary carcinomas implanted on the dorsal thorax were given a total dose of 105 milligrams porphyrin compound V per kilogram body weight (23.7 mg B/kg). At one and two days after the last injection, mice were euthanized, and tumor, blood, brain, and liver were removed for boron analyses. The blood was first analyzed for hematologic parameters that indicate toxicity before it was analyzed for boron.
Similar to Example 8, Compound VII was given, to tumor-bearing mice except at a slightly higher total dose of 143 mg/kg body weight in 3 i.p. injections given over a period of 8 hours.

[1] = Weight changes and hematologic parameters in mice; assay type: in vivo, BALB/c mice
[2] = 105 mg/kg (23.7 mg B/kg), 1 day after last injection
[3] = 105 mg/kg (23.7 mg B/kg), 2 days after last injection
[4] = 143 mg/kg (30 mg B/kg), 1 day after last injection
[5] = 143 mg/kg (30 mg B/kg), 2 days after last injection

For “Copper (II) 5,15-dinitro-10,20-bis(3-[o-carboranylmethoxy]phenyl)porphyrin [Porphyrin compound V]”, the “Average boron concentration, Blood” value (EMT-6 mammary carcinomas; [2]) was 34.6 ± 26.9 μg B/g, the “Average boron concentration, Brain” value (EMT-6 mammary carcinomas; [2]) was 0.5 ± 0.4 μg B/g and the “Average boron concentration, Heart” value (EMT-6 mammary carcinomas; [2]) was 9.1 ± 3.8 μg B/g. For the same substance, the “Average boron concentration, Kidneys” value (EMT-6 mammary carcinomas; [2]) was 12.7 ± 6.9 μg B/g, the “Average boron concentration, Liver” value (EMT-6 mammary carcinomas; [2]) was 145 ± 18 μg B/g and the “Average boron concentration, Skin (pinna)” value (EMT-6 mammary carcinomas; [2]) was 3.6 ± 13.0 μg B/g. For the same substance, the “Average boron concentration, Spleen” value (EMT-6 mammary carcinomas; [2]) was 76.1 ± 8.6 μg B/g, the “Average boron concentration, Tumor” value (EMT-6 mammary carcinomas; 105 mg/kg (23.7 mg B/kg), 1 day after last injection, wet tissue) was 39.2 ± 14.4 μg B/g and the “Average boron concentration, Blood” value (EMT-6 mammary carcinomas; [3]) was 1.5 ± 0.4 μg B/g. The “Average boron concentration, Brain” value (EMT-6 mammary carcinomas; [3]) was 0.1 ± 0.1 μg B/g, the “Average boron concentration, Feces” value (EMT-6 mammary carcinomas; [3]) was 15.2 ± 20.8 μg B/g and the “Average boron concentration, Heart” value (EMT-6 mammary carcinomas; [3]) was 7.5 ± 0.6 μg B/g. For the same substance, the “Average boron concentration, Kidneys” value (EMT-6 mammary carcinomas; [3]) was 7.1 ± 0.5 μg B/g, the “Average boron concentration, Liver” value (EMT-6 mammary carcinomas; [3]) was 226 ± 25 μg B/g and the “Average boron concentration, Lungs” value (EMT-6 mammary carcinomas; [3]) was 8.5 ± 3.0 μg B/g. For the same substance, the “Average boron concentration, Skin (pinna)” value (EMT-6 mammary carcinomas; [3]) was 4.8 ± 1.6 μg B/g, the “Average boron concentration, Spleen” value (EMT-6 mammary carcinomas; [3]) was 158 ± 19 μg B/g and the “Average boron concentration, Tumor” value (EMT-6 mammary carcinomas; [3]) was 49.8 ± 12.9 μg B/g. For the same substance, the “amount of boron delivered to the tumor” value (EMT-6 mammary carcinomas; porphyrin dose ~100 mg/kg (24 mg/kg B)) was roughly 50 ppm, the “percentage of injected dose in tumor per gram of wet tissue” value (EMT-6 mammary carcinomas; ~100 mg/kg (24 mg/kg B), EMT-6 tumor model) was roughly 10.5 %/g and the “% Weight change” value [1, 2] was −0.8 ± 1.8%. For the same substance, the Platelet count [1, 2] was 1349 ± 294 m/m^3, the White blood count [1, 2] was 9.9 ± 2.6 m/m^3 and the “% Weight change” value [1, 3] was −1.7 ± 1.7%. The Platelet count [1, 3] was 515 ± 160 m/m^3 and the White blood count [1, 3] was 11.8 ± 1.8 m/m^3.
In the case of “copper (II) 5,15-dibromo-10,20-bis(3-[o-carboranylmethoxy]phenyl)porphyrin [Porphyrin compound VII]”, the “Average boron concentration, Blood” value (EMT-6 mammary carcinomas; [4]) is reported as 105 ± 20 μg B/g, the “Average boron concentration, Brain” value (EMT-6 mammary carcinomas; [4]) is reported as 1.9 ± 0.5 μg B/g and the “Average boron concentration, Feces” value (EMT-6 mammary carcinomas; [4]) is reported as 11.2 ± 2.3 μg B/g. For the same substance, the “Average boron concentration, Heart” value (EMT-6 mammary carcinomas; [4]) was 20.4 ± 4.6 μg B/g, the “Average boron concentration, Kidneys” value (EMT-6 mammary carcinomas; [4]) was 38.7 ± 7.0 μg B/g and the “Average boron concentration, Liver” value (EMT-6 mammary carcinomas; [4]) was 183 ± 19 μg B/g. For the same substance, the “Average boron concentration, Lungs” value (EMT-6 mammary carcinomas; [4]) was 35.8 ± 3.7 μg B/g, the “Average boron concentration, Skin (pinna)” value (EMT-6 mammary carcinomas; [4]) was 9.2 ± 1.8 μg B/g and the “Average boron concentration, Spleen” value (EMT-6 mammary carcinomas; [4]) was 107 ± 11 μg B/g. For the same substance, the “Average boron concentration, Tumor” value (EMT-6 mammary carcinomas; [4]) was 67.1 ± 8.5 μg B/g, the “Average boron concentration, Blood” value (EMT-6 mammary carcinomas; [5]) was 12.1 ± 9.7 μg B/g and the “Average boron concentration, Brain” value (EMT-6 mammary carcinomas; [5]) was 0.1 ± 0.2 μg B/g. The “Average boron concentration, Feces” value (EMT-6 mammary carcinomas; [5]) was 4.9 ± 0.6 μg B/g, the “Average boron concentration, Heart” value (EMT-6 mammary carcinomas; [5]) was 9.4 ± 1.1 μg B/g and the “Average boron concentration, Kidneys” value (EMT-6 mammary carcinomas; [5]) was 13.0 ± 3.6 μg B/g. For the same substance, the “Average boron concentration, Liver” value (EMT-6 mammary carcinomas; [5]) was 263 ± 34 μg B/g, the “Average boron concentration, Lungs” value (EMT-6 mammary carcinomas; [5]) was 17.8 ± 6.2 μg B/g and the “Average boron concentration, Skin (pinna)” value (EMT-6 mammary carcinomas; [5]) was 7.7 ± 1.7 μg B/g. The “Average boron concentration, Spleen” value (EMT-6 mammary carcinomas; [5]) was 160 ± 15 μg B/g, the “Average boron concentration, Tumor” value (EMT-6 mammary carcinomas; [5]) was 76.9 ± 14.1 μg B/g and the “% Weight change” value [1, 4] was −0.3 ± 1.4%. The Platelet count [1, 4] was 1461 ± 229 m/m^3, the White blood count [1, 4] was 8.8 ± 1.3 m/m^3 and the “% Weight change” value [1, 5] was 0.2 ± 2.2%. The Platelet count [1, 5] was 790 ± 227 m/m^3, the White blood count [1, 5] was 11.8 ± 1.8 m/m^3 and the “toxicity associated with the porphyrin” value ([1]; 143 mg/kg dose) was “little if any toxicity”.
